Columns and labels:
caspase-1 = target: T1, caspase-1 (Homo sapiens, UniProt P29466); assay: Caspase-1 enzyme inhibition (Ki, method of Margolin et al.); type: biochemical; conditions: Suc-YVAD-pNA substrate 80 μM, 37° C., pH 7.5; read-out: Ki C1
T1 sequence (P29466 120-297 limits assumed): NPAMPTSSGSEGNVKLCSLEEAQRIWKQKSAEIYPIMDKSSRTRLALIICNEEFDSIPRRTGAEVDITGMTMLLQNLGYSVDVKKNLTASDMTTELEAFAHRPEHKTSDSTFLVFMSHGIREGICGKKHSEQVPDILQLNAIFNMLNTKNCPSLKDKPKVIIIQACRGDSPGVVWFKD
T1 sequence (P29466 317-404 limits assumed): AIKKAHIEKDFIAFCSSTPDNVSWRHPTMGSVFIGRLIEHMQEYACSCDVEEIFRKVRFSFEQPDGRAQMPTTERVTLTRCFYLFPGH
Protocol: (§1) Compounds of this invention may be tested using the methods described below.
(§2) In Vitro Assays Enzyme Inhibition
(§3) Ki values for test compounds with caspase-1 and caspase-8 were obtained by the method of Margolin et al. (J. Biol. Chem., 272 pp. 7223-7228 (1997)). Other caspases may be assayed similarly (see, e.g., WO 99/47545). Assays were performed in 10 mM Tris (Sigma Corp, St Louis Mo.) pH 7.5, 1 mM Dithiothreitol (DTT, Research Organic INC, Cleveland, Ohio) and 0.1% CHAPS (Pierce, Rockford Ill.) at 37° C. For caspase-3, a solution of 8% glycerol was added to the assay buffer to improve enzyme stability. A 65 μL aliquot of the assay buffer and 5 μL aliquot of the appropriate dilutions of inhibitor in DMSO where pipetted into a 96 well plate, treated with 10 μL of caspase, then diluted in assay buffer (0.5-40 nM active protein by active site titration). A control containing DMSO but no compound was included for each determination. The plates were then incubated for 15 minutes at 37° C., before addition of the appropriate substrate (20 μL, final concentration 1-4×KM, final assay volume 100 μL) to initiate the reaction. Reaction rates were measured at 37° C. either by following the time dependant increase in absorbance at 405 nm (for the pNA substrates) or in fluorescence (Ex 390, Em 460) (for the AMC substrates). The rates obtained were plotted against inhibitor concentration and the data fit to the Morrison tight-binding equation for competitive inhibitors (Morrison, J. F., Biochem. Biophys. Acta, 185 pp. 269-286 (1969)). The substrates used for the individual assays were as follows:
Caspase-1 Suc-YVAD-pNA (Bachem, King of Prussia, Pa.) (final concentration in the assay 80 μM);

caspase-8 = caspase-8 (Homo sapiens, UniProt Q14790); assay: Caspase-8 enzyme inhibition (Ki, method of Margolin et al.); type: biochemical; conditions: Ac-DEVD-pNA substrate 80 μM, 37° C., pH 7.5; read-out: Ki C8
Protocol: as §1, §2, §3
Caspase-8 Ac-DEVD-pNA (Bachem, King of Prussia, Pa.) (final concentration in assay 80 μM).

Sequence of caspase-8 (Q14790 217-374 limits assumed, species assumed): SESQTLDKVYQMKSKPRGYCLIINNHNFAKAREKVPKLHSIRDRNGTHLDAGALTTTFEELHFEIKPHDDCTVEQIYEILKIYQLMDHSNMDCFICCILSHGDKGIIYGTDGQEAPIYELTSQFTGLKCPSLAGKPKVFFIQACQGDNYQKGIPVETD
Sequence of caspase-8 (Q14790 385-479 limits assumed, species assumed): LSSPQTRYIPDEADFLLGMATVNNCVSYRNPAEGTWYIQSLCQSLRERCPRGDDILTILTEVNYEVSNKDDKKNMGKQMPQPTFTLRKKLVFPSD

Compound	Ki (caspase-1) [nM]	Ki (caspase-8) [nM]
CCC(=O)Nc1ccc(C(=O)N[C@H](C(=O)N2[C@@H]3CC[C@@H](C3)[C@H]2C(=O)N[C@H](C=O)CC(=O)O)C(C)(C)C)cc1Cl (stereo in doubt) [II-63, (3S)-({2-[(2S)-(3-Chloro-4-propionylamino-benzoylamino)-3,3-dimethyl-butyryl]-2-(1S,4R)-aza-bicyclo[2.2.1]heptane-(3S)-carbonyl}-amino)-4-oxo-butyric acid]	< 10	10 to 20
CC(C)(C)[C@H](NC(=O)c1nccc2ccccc12)C(=O)N1[C@@H]2CC[C@@H](C2)[C@H]1C(=O)N[C@H](C=O)CC(=O)O (stereo in doubt) [II-64, (3S)-({2-[(2S)-(Isoquinolin-1-ylcarbonylamino)-3,3-dimethyl-butyryl]-2-(1S,4R)-aza-bicyclo[2.2.1]heptane-(3S)-carbonyl}-amino)-4-oxo-butyric acid]	10 to 20	10 to 20
CC(C)(C)[C@H](NC(=O)c1ccc(N)c(Cl)c1)C(=O)N1[C@@H]2CC[C@@H](C2)[C@H]1C(=O)N[C@H](C=O)CC(=O)O (stereo in doubt) [II-65, (3S)-({2-[(2S)-(4-Amino-3-chloro-benzoylamino)-3,3-dimethyl-butyryl]-2-(1S,4R)-aza-bicyclo[2.2.1]heptane-(3S)-carbonyl}-amino)-4-oxo-butyric acid]	< 10	< 10
CC(C)[C@H](NC(=O)c1ccc(N)c(Cl)c1)C(=O)N1[C@@H]2CC[C@@H](C2)[C@H]1C(=O)N[C@H](C=O)CC(=O)O (stereo in doubt) [II-66, (3S)-({2-[(2S)-(4-Amino-3-chloro-benzoylamino)-3-methyl-butyryl]-2-(1S,4R)-aza-bicyclo[2.2.1]heptane-(3S)-carbonyl}-amino)-4-oxo-butyric acid]	10 to 20	< 10
COc1cccc(C(=O)N[C@H](C(=O)N2CCC[C@H]2C(=O)N[C@H](C=O)CC(=O)O)C(C)C)c1C [II-1, (S,S,S)-(3S)-({1-[(2S)-(3-Methoxy-2-methyl-benzoylamino)-3-methyl-butyryl]-pyrrolidine-(2S)-carbonyl}-amino)-4-oxo-butyric acid]	< 10	< 10
CC(C)[C@H](NC(=O)c1ccccc1Cl)C(=O)N1CCC[C@H]1C(=O)N[C@H](C=O)CC(=O)O [II-2, (S,S,S)-(3S)-({1-[(2S)-(2-Chloro-benzoylamino)-3-methyl-butyryl]-pyrrolidine-(2S)-carbonyl}-amino)-4-oxo-butyric acid]	< 10	< 10
Cc1ccccc1C(=O)N[C@H](C(=O)N1CCC[C@H]1C(=O)N[C@H](C=O)CC(=O)O)C(C)C [II-3, (S,S,S)-(3S)-({1-[3-Methyl-(2S)-(2-methyl-benzoylamino)-butyryl]-pyrrolidine-(2S)-carbonyl}-amino)-4-oxo-butyric acid]	< 10	< 10
COc1ccccc1C(=O)N[C@H](C(=O)N1CCC[C@H]1C(=O)N[C@H](C=O)CC(=O)O)C(C)C [II-4, (S,S,S)-(3S)-({1-[(2S)-(2-methoxy-benzoylamino)-3-methyl-butyryl]-pyrrolidine-(2S)-carbonyl}-amino)-4-oxo-butyric acid]	< 10	10 to 20
CC(C)[C@H](NC(=O)c1ccccc1OC(F)(F)F)C(=O)N1CCC[C@H]1C(=O)N[C@H](C=O)CC(=O)O [II-5, (S,S,S)-(3S)-({1-[3-Methyl-(2S)-(2-trifluoromethoxy-benzoylamino)-butyryl]-pyrrolidine-(2S)-carbonyl}-amino)-4-oxo-butyric acid]	< 10	10 to 20
Cc1c(O)cccc1C(=O)N[C@H](C(=O)N1CCC[C@H]1C(=O)N[C@H](C=O)CC(=O)O)C(C)C [II-6, (S,S,S)-(3S)-({1-[(2S)-(3-Hydroxy-2-methyl-benzoylamino)-3-methyl-butyryl]-pyrrolidine-(2S)-carbonyl}-amino)-4-oxo-butyric acid]	< 10	< 10
Cc1c(N)cccc1C(=O)N[C@H](C(=O)N1CCC[C@H]1C(=O)N[C@H](C=O)CC(=O)O)C(C)C [II-7, (S,S,S)-(3S)-({1-[(2S)-(3-Amino-2-methyl-benzoylamino)-3-methyl-butyryl]-pyrrolidine-(2S)-carbonyl}-amino)-4-oxo-butyric acid]	< 10	10 to 20
CC(C)[C@H](NC(=O)c1cccc(Cl)c1Cl)C(=O)N1CCC[C@H]1C(=O)N[C@H](C=O)CC(=O)O [II-8, (S,S,S)-(3S)-({1-[(2S)-(2,3-Dichloro-benzoylamino)-3-methyl-butyryl]-pyrrolidine-(2S)-carbonyl}-amino)-4-oxo-butyric acid]	< 10	10 to 20

Results, then the compound that gave them:

Ki (caspase-1) [nM]	Ki (caspase-8) [nM]	Compound
< 10	< 10	COc1cccc(C(=O)N[C@H](C(=O)N2[C@@H]3CC[C@@H](C3)[C@H]2C(=O)NC(C=O)CC(=O)O)C(C)(C)C)c1C (stereo in doubt) [II-55, (3S)-({2-[(2S)-(3-Methoxy-2-methyl-benzoylamino)-3,3-dimethyl-butyryl]-2-(1S,4R)-aza-bicyclo[2.2.1]heptane-(3S)-carbonyl}-amino)-4-oxo-butyric acid]
< 10	< 10	CC(C)(C)[C@H](NC(=O)c1ccccc1Cl)C(=O)N1[C@@H]2CC[C@@H](C2)[C@H]1C(=O)NC(C=O)CC(=O)O (stereo in doubt) [II-56, (3S)-({2-[(2S)-(2-Chloro-benzoylamino)-3,3-dimethyl-butyryl]-2-(1S,4R)-aza-bicyclo[2.2.1]heptane-(3S)-carbonyl}-amino)-4-oxo-butyric acid]
< 10	< 10	CC(=O)Nc1ccc(C(=O)N[C@H](C(=O)N2C3CC[C@@H](C3)[C@H]2C(=O)N[C@H](C=O)CC(=O)O)C(C)(C)C)c(Cl)c1 (stereo in doubt) [II-57, (3S)-({2-[(2S)-(4-Acetylamino-2-chloro-benzoylamino)-3,3-dimethyl-butyryl]-2-(1S,4R)-aza-bicyclo[2.2.1]heptane-(3S)-carbonyl}-amino)-4-oxo-butyric acid]
< 10	< 10	CCC(=O)Nc1ccc(C(=O)N[C@H](C(=O)N2C3CC[C@@H](C3)[C@H]2C(=O)NC(C=O)CC(=O)O)C(C)(C)C)c(Cl)c1 (stereo in doubt) [II-58, (3S)-({2-[(2S)-(2-Chloro-4-propionylamino-benzoylamino)-3,3-dimethyl-butyryl]-2-(1S,4R)-aza-bicyclo[2.2.1]heptane-(3S)-carbonyl}-amino)-4-oxo-butyric acid]
< 10	< 10	CC(C)C(=O)Nc1cccc(C(=O)N[C@H](C(=O)N2C3CC[C@@H](C3)[C@H]2C(=O)N[C@H](C=O)CC(=O)O)C(C)(C)C)c1Cl (stereo in doubt) [II-59, (3S)-({2-[(2S)-(2-Chloro-3-isobutyrylamino-benzoylamino)-3,3-dimethyl-butyryl]-2-(1S,4R)-aza-bicyclo[2.2.1]heptane-(3S)-carbonyl}-amino)-4-oxo-butyric acid]
< 10	< 10	COc1cccc(C(=O)N[C@H](C(=O)N2C3CC[C@@H](C3)[C@H]2C(=O)N[C@H](C=O)CC(=O)O)C(C)(C)C)c1F (stereo in doubt) [II-60, (3S)-({2-[(2S)-(2-Fluoro-3-methoxy-benzoylamino)-3,3-dimethyl-butyryl]-2-(1S,4R)-aza-bicyclo[2.2.1]heptane-(3S)-carbonyl}-amino)-4-oxo-butyric acid]
< 10	< 10	COc1cccc(C(=O)N[C@H](C(=O)N2C3CC[C@@H](C3)[C@H]2C(=O)N[C@H](C=O)CC(=O)O)C(C)C)c1F (stereo in doubt) [II-61, (3S)-({2-[(2S)-(2-Fluoro-3-methoxy-benzoylamino)-3-methyl-butyryl]-2-(1S,4R)-aza-bicyclo[2.2.1]heptane-(3S)-carbonyl}-amino)-4-oxo-butyric acid]
< 10	10 to 20	CC(=O)Nc1ccc(C(=O)N[C@H](C(=O)N2[C@@H]3CC[C@@H](C3)[C@H]2C(=O)N[C@H](C=O)CC(=O)O)C(C)(C)C)cc1Cl (stereo in doubt) [II-62, (3S)-({2-[(2S)-(4-Acetylamino-3-chloro-benzoylamino)-3,3-dimethyl-butyryl]-2-(1S,4R)-aza-bicyclo[2.2.1]heptane-(3S)-carbonyl}-amino)-4-oxo-butyric acid]

Source: US7652153B2, “Caspase inhibitors and uses thereof” (Vertex Pharmaceuticals Incorporated, priority 2004, dated 2010)
